Data as given in ChEMBL document CHEMBL1201862, “PubChem BioAssay data set” (2004).
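96-well plates; 48 h exposure; 5 concentrations. Endpoints by linear interpolation between flanking doses. Not reached: highest tested concentration assigned. Here, GI50 denotes the concentration required for 50% inhibition of growth.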 The source made the active and inactive calls. No stated cut-off is given here; in the data, active = GI50 up to about 1.1 µM and inactive = higher.

Tests used:
Assay in all cases: NCI tumour cell line growth inhibition, 48 h
[1] = system: SR
[2] = system: EKVX
[3] = system: OVCAR-5
[4] = system: 786-0
[5] = system: OVCAR-3
[6] = system: HT-29
[7] = system: CCRF-CEM
[8] = system: M14
[9] = system: PC-3
[10] = system: UACC-257
[11] = system: SF-295
[12] = system: KM12
[13] = system: HL-60
[14] = system: HCC 2998
[15] = system: UACC-62
[16] = system: A549
[17] = system: SK-MEL-5
[18] = system: ACHN
[19] = system: COLO 205

Compound	GI50 [1]	GI50 [2]	GI50 [3]	GI50 [4]	GI50 [5]	GI50 [6]	GI50 [7]	GI50 [8]	GI50 [9]	GI50 [10]	GI50 [11]	GI50 [12]	GI50 [13]	GI50 [14]	GI50 [15]	GI50 [16]	GI50 [17]	GI50 [18]	GI50 [19]
O=C(CCc1ccc(O)c(O)c1)NCCc1cc(O)cc(O)c1	> 100 µM (inactive)	> 100 µM (inactive)	> 100 µM (inactive)	> 100 µM (inactive)	> 100 µM (inactive)	> 100 µM (inactive)	29.2 µM (inactive)	> 100 µM (inactive)	> 100 µM (inactive)	> 100 µM (inactive)	> 100 µM (inactive)	> 100 µM (inactive)	> 100 µM (inactive)	> 100 µM (inactive)	> 100 µM (inactive)	> 100 µM (inactive)	> 100 µM (inactive)	> 100 µM (inactive)	> 100 µM (inactive)
Cc1cc(C)c2c(c1)CC1(Cc3c(C)cc(C)cc3C1=O)C2=O (stereo unspecified)	> 100 µM (inactive)	> 100 µM (inactive)	> 100 µM (inactive)	> 100 µM (inactive)	> 100 µM (inactive)		> 100 µM (inactive)	> 100 µM (inactive)	> 100 µM (inactive)	> 100 µM (inactive)	> 100 µM (inactive)	> 100 µM (inactive)	> 100 µM (inactive)	> 100 µM (inactive)	> 100 µM (inactive)	98.6 µM (inactive)	> 100 µM (inactive)	> 100 µM (inactive)	> 100 µM (inactive)
O=c1c2c3c(sc2nc2n1sc1nc4sc5c(c4c(=O)n12)CCCC5)CCCC3	25.8 µM (inactive)	12 µM (inactive)	> 100 µM (inactive)	17.3 µM (inactive)	24.2 µM (inactive)	41.2 µM (inactive)	24.4 µM (inactive)	98.2 µM (inactive)	54.5 µM (inactive)	> 96.8 µM (inactive)	64.6 µM (inactive)	> 89.7 µM (inactive)	27.2 µM (inactive)	36.1 µM (inactive)	10.9 µM (inactive)	> 77.1 µM (inactive)	> 100 µM (inactive)	61.5 µM (inactive)	26.6 µM (inactive)
O=C(c1cc2ccccc2cc1O)N1CCCCC1	16.7 µM (inactive)	20.3 µM (inactive)		59.4 µM (inactive)		25.6 µM (inactive)	14.5 µM (inactive)	18.1 µM (inactive)	29.8 µM (inactive)	53 µM (inactive)	25.4 µM (inactive)	33.6 µM (inactive)	20.4 µM (inactive)	21.2 µM (inactive)	31.4 µM (inactive)		20 µM (inactive)	38.2 µM (inactive)	32.7 µM (inactive)
Cc1cn(C2CC(O)C(CO[Si](C)(C)C(C)(C)C)OC2OC(C)C)c(=O)[nH]c1=O (stereo unspecified)	31.2 µM (inactive)	42.5 µM (inactive)	> 100 µM (inactive)	16.6 µM (inactive)	20.6 µM (inactive)	20 µM (inactive)	36.1 µM (inactive)	34.9 µM (inactive)	33.6 µM (inactive)	34.6 µM (inactive)	65 µM (inactive)	49.5 µM (inactive)		24.5 µM (inactive)	> 100 µM (inactive)	34.1 µM (inactive)	32.7 µM (inactive)	50.5 µM (inactive)	21.5 µM (inactive)
CN1C2CCC1C(CO)C(=O)C2 (stereo unspecified)	26.1 µM (inactive)				> 100 µM (inactive)		10.2 µM (inactive)		> 100 µM (inactive)	85.1 µM (inactive)	> 100 µM (inactive)	> 100 µM (inactive)	3.56 µM (inactive)	> 100 µM (inactive)	> 100 µM (inactive)		> 100 µM (inactive)	38.6 µM (inactive)	17.6 µM (inactive)
CC(=O)O[C@H]1CC[C@H]2[C@@H]3CCC4=CC(=O)C=C[C@]4(O)[C@H]3CC[C@]12C	0.738 µM (active)	31.7 µM (inactive)	> 100 µM (inactive)	50.6 µM (inactive)	42.1 µM (inactive)		13.5 µM (inactive)	32.1 µM (inactive)	30.1 µM (inactive)	18.4 µM (inactive)	16.6 µM (inactive)	14.9 µM (inactive)		45.1 µM (inactive)	42.3 µM (inactive)	> 42 µM (inactive)	4.6 µM (inactive)	> 84.5 µM (inactive)	22.4 µM (inactive)
Cc1nc(-c2ccc(Cl)cc2)cn2c1nc1ccccc12	90.6 µM (inactive)	> 100 µM (inactive)	> 31 µM (inactive)	> 100 µM (inactive)	> 100 µM (inactive)	99.1 µM (inactive)	23.5 µM (inactive)	> 72.3 µM (inactive)	> 100 µM (inactive)	> 100 µM (inactive)	> 100 µM (inactive)	> 82.6 µM (inactive)	> 31.6 µM (inactive)	> 100 µM (inactive)	> 100 µM (inactive)	> 100 µM (inactive)	5.14 µM (inactive)	> 100 µM (inactive)	> 43.3 µM (inactive)
Cc1cn(CCCCOC(=O)NC(CCCNC(N)=O)C(=O)O)c(=O)[nH]c1=O (stereo unspecified)	> 100 µM (inactive)	> 100 µM (inactive)	> 100 µM (inactive)	> 100 µM (inactive)	> 100 µM (inactive)	> 100 µM (inactive)	> 100 µM (inactive)	> 100 µM (inactive)	> 100 µM (inactive)	> 100 µM (inactive)	> 100 µM (inactive)	> 100 µM (inactive)	> 100 µM (inactive)	> 100 µM (inactive)	> 100 µM (inactive)	> 100 µM (inactive)		> 100 µM (inactive)	> 100 µM (inactive)
Cc1ccc(C)c(NC(=O)/C(=N\N)C(c2cnc3ccc([N+](=O)[O-])cc3n2)[N+](=O)[O-])c1 (stereo unspecified)	74.1 µM (inactive)	43.3 µM (inactive)	> 100 µM (inactive)	> 100 µM (inactive)	61.1 µM (inactive)	65.8 µM (inactive)	4.99 µM (inactive)	> 100 µM (inactive)	50.7 µM (inactive)	> 100 µM (inactive)	> 100 µM (inactive)	47.9 µM (inactive)	52 µM (inactive)	69.8 µM (inactive)	> 100 µM (inactive)	92.7 µM (inactive)	41.6 µM (inactive)	14.5 µM (inactive)	
C=C1C[C@@H]2O[C@H]3[C@H]4[C@@H](C[C@@H](C)[C@@H](OC(C)=O)[C@H]42)[C@@H](C)CO[C@@]3(C)[C@H](OC(=O)CCCCCCC)CC1=O	16 µM (inactive)	15.5 µM (inactive)	7.29 µM (inactive)	15.7 µM (inactive)	18.2 µM (inactive)	20.9 µM (inactive)	5.85 µM (inactive)	15.6 µM (inactive)	9.82 µM (inactive)	14.4 µM (inactive)	19.5 µM (inactive)	12.1 µM (inactive)		17 µM (inactive)	16.5 µM (inactive)	18.4 µM (inactive)	15 µM (inactive)	16 µM (inactive)	13.9 µM (inactive)
COc1ccc(CCNC(=O)Cc2ccccc2CCO)cc1OC	> 100 µM (inactive)	> 100 µM (inactive)	> 100 µM (inactive)	> 100 µM (inactive)	> 100 µM (inactive)	> 100 µM (inactive)	> 100 µM (inactive)	> 100 µM (inactive)	> 100 µM (inactive)	> 100 µM (inactive)	> 100 µM (inactive)	> 100 µM (inactive)	> 100 µM (inactive)	> 100 µM (inactive)	> 100 µM (inactive)	> 100 µM (inactive)	> 100 µM (inactive)	> 100 µM (inactive)	> 100 µM (inactive)
CCN1CCN(c2nc3ccc([N+](=O)[O-])cc3nc2C(=O)c2ccccc2)CC1	2.47 µM (inactive)	16.1 µM (inactive)	20.1 µM (inactive)	18.7 µM (inactive)	16.8 µM (inactive)		2.12 µM (inactive)	12.4 µM (inactive)	17.3 µM (inactive)	20.1 µM (inactive)	16.7 µM (inactive)	16.8 µM (inactive)	26.2 µM (inactive)	15.3 µM (inactive)	16.9 µM (inactive)	17.6 µM (inactive)		15.8 µM (inactive)	16.2 µM (inactive)
Cc1cc2c(cc1C)OC(=O)CC2	> 100 µM (inactive)	> 100 µM (inactive)	> 100 µM (inactive)	> 100 µM (inactive)	> 100 µM (inactive)	> 100 µM (inactive)	> 100 µM (inactive)	> 100 µM (inactive)	> 100 µM (inactive)	> 100 µM (inactive)	> 100 µM (inactive)	> 100 µM (inactive)	> 100 µM (inactive)	> 100 µM (inactive)	> 100 µM (inactive)	> 100 µM (inactive)	> 100 µM (inactive)	> 100 µM (inactive)	> 100 µM (inactive)
CC(C)C(C/C=C1/CC(CO)(COC(=O)C2CCCCC2)OC1=O)C(C)C (stereo unspecified)	28 µM (inactive)	20 µM (inactive)	18.7 µM (inactive)	12.4 µM (inactive)	18.5 µM (inactive)	27.9 µM (inactive)	17.2 µM (inactive)	17.3 µM (inactive)	17.1 µM (inactive)	26.9 µM (inactive)	14.2 µM (inactive)	21.1 µM (inactive)		26.1 µM (inactive)	89.9 µM (inactive)	12.5 µM (inactive)	18.3 µM (inactive)	13.3 µM (inactive)	5.94 µM (inactive)
